The values that follow come from ChEMBL document CHEMBL4308920, “Optimizing the Pharmacological Profile of New Bifunctional Antihyperlipidemic/Antioxidant Morpholine Derivatives” (ACS Med Chem Lett, 2019).

In test [1] the target is T1, Squalene synthase (Rattus norvegicus, UniProt Q02769).
T1 sequence (Q02769 whole entry): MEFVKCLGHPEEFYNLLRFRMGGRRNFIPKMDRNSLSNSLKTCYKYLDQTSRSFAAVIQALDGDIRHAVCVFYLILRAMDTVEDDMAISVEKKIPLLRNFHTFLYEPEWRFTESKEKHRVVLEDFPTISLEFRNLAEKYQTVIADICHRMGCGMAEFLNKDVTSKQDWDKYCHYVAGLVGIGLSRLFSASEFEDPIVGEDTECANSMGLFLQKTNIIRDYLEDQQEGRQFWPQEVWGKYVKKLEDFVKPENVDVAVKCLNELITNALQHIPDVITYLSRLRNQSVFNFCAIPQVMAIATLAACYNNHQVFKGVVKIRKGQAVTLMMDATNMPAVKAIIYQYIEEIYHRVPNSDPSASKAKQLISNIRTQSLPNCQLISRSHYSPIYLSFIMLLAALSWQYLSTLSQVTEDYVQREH
Kind of test: Inhibition of SQS in rat liver microsomes assessed as reduction in [3H]FPP conversion to squalene preincubated for 10 mins followed by [3H]FPP addition and measured after 10 mins by scintillation counting method. (Liver microsomes are vesicles of endoplasmic reticulum, rich in cytochrome P450 enzymes.)

A further test has as its system Liver. Kind of test: Antioxidant activity in rat hepatic microsomes assessed as reduction in ferrous salt/ascorbic acid-induced lipid peroxidation of membrane lipids by measuring TBARS level after 45 mins by spectrophotometric method. Format: functional, Microsome. The following applies: 0.75 h.
The target in test [2] is T2, Squalene synthase (Rattus norvegicus) (UniProt Q02769).
T2 sequence (whole entry): T1 sequence (Q02769 whole entry)
Kind of test: Potency index, ratio of 2-(biphenyl-4-yl)-4-methylmorpholin-2-ol hydrobromide IC50 to compound IC50 for inhibition of SQS in rat liver microsomes.

Test [3] addresses T2, Squalene synthase (Rattus norvegicus). The test can be described thus: Potency index, ratio of 2-(4-(6-methoxynaphthalen-2-yl)phenyl)-4-methylmorpholin-2-ol hydrobromide IC50 to compound IC50 for inhibition of SQS in rat liver microsomes.
Test [4] has the same target. Kind of test: Potency index, ratio of 4-methyl-2-(4-(naphthalen-2-yl)phenyl)morpholin-2-ol hydrobromide IC50 to compound IC50 for inhibition of SQS in rat liver microsomes.
Test [5] deals with Mus musculus. Kind of test: In vivo antioxidant activity in C57BL/6 mouse model of Triton WR1339-induced hyperlipidemia assessed as increase in total antioxidant capacity in plasma at 84 umol/kg, ip measured after 24 hrs relative to control. Format: functional.
The subject of test [6] is Mus musculus. The test can be described thus: Anti-inflammatory activity in C57BL/6 mouse assessed as inhibition of carrageenan-induced hind paw edema at 300 umol/kg, ip treated immediately after carrageenan challenge measured after 3.5 hrs relative to control. Format: functional. The following applies: C57BL/6, ip. (In the carrageenan paw model, swelling and tenderness develop within hours.)

The subject of test [7] is Mus musculus. Kind of test: Antihypercholesterolemic activity in C57BL/6 mouse model of Triton WR1339-induced hyperlipidemia assessed as reduction in plasma total cholesterol level at 84 umol/kg, ip measured after 24 hrs relative to control. Format: functional. Also noted: scale not given: the % may be the effect or the level left.
Test [8] has as its system Mus musculus. Kind of test: Antihyperlipidemic activity in C57BL/6 mouse model of Triton WR1339-induced hyperlipidemia assessed as reduction in plasma total triglyceride level at 84 umol/kg, ip measured after 24 hrs relative to control. Format: functional. The arrangement: scale not given: the % may be the effect or the level left.
Test [9] addresses T1, Squalene synthase. Kind of test: Inhibition of SQS in rat liver microsomes assessed as reduction in [3H]FPP conversion to squalene after 45 mins by liquid scintillation counting method.

Structures are written as SMILES.

Broadly, the IC50 is the concentration that gives 50% inhibition. As usually defined, the inhibition in vivo is how much of the control response was suppressed.

For the compound `CN1CCOC(OCCCO[N+](=O)[O-])(c2ccc(-c3ccc4ccccc4c3)cc2)C1` (centres undefined), the IC50 is 0.51 µM on Squalene synthase [1] and 75.8 µM with Liver.
On to `COc1ccc2cc(-c3ccc(C4(OCCCS)CN(C)CCO4)cc3)ccc2c1` (centres undefined), for which the Ratio IC50 in test [2], in [3] and in [4] was under 136 each time. For the same compound, the results for the IC50 on Squalene synthase [1] and in the test on Liver were 0.16 µM and 147 µM, respectively.
For the compound `Br.CN1CCOC(OCCCS)(c2ccc(-c3ccc4ccccc4c3)cc2)C1` (centres undefined), the Ratio IC50 in test [2], in test [3] and in test [4] was under 136 throughout. The IC50 on Squalene synthase [1] worked out at 0.014 µM; in the test on Liver it was 198 µM. Besides, the TAC in the test with Mus musculus [5] came to 20%. The inhibition in vivo at 300 µmol/kg with Mus musculus [6] came to 40%. Further, the figures for the Activity in the test with Mus musculus [7] and in the test with Mus musculus [8] were 67% and 25%, respectively.
As for `CN1CCOC(OCCCS)(c2ccc(-c3ccccc3)cc2)C1` (centres undefined), the Ratio IC50 in test [2], in [3] and in test [4] was under 136 each time. For the same compound, the IC50 was 2.7 µM at Squalene synthase [1] and 372 µM with Liver.
Take `CN1CCSC(c2ccc(-c3ccccc3)cc2)C1` (centres undefined): the half-maximal inhibitory concentration (IC50) is 15 µM at Squalene synthase [1] and 299 µM in the test with Liver.
Taken in the same sequence, the figures for `c1ccc(-c2ccc(C3CN4CCCCC4CO3)cc2)cc1` (centres undefined) were 7.5 µM and 179 µM.
As for `COc1cccc([C@H]2O[C@H](CC(=O)N3CCC(CC(=O)O)CC3)C(=O)N(CC(C)(C)COC(C)=O)c3ccc(Cl)cc32)c1OC` [LAPAQUISTAT ACETATE], at Squalene synthase [9], the IC50 is 0.078 µM.
As for `CN1CCOC(OCCCO)(c2ccc(-c3ccc4ccccc4c3)cc2)C1` (centres undefined), the IC50 at Squalene synthase [1] is 6.2 µM; in the test with Liver, 259 µM.
`CN1CCSC(c2ccc3ccccc3c2)C1` (centres undefined): the values for the IC50 at Squalene synthase [1] and in the test on Liver were 25.2 µM and 178 µM, respectively.
In the case of `COc1ccc2cc(-c3ccc(C4(OCCCO[N+](=O)[O-])CN(C)CCO4)cc3)ccc2c1` (centres undefined), the values for the IC50 at Squalene synthase [1] and in the test on Liver were 16.1 µM and 45 µM, respectively.
On the same counts, the results for `COc1ccc2cc(-c3ccc(C4(OCCCO)CN(C)CCO4)cc3)ccc2c1` (centres undefined) are 29.4 µM and 211 µM.
For `CN1CCOC(OCCCO)(c2ccc(-c3ccccc3)cc2)C1` (centres undefined), the IC50 at Squalene synthase [1] amounted to 24.9 µM; with Liver, 333 µM.
On the same counts, the results for `CN1C=C(c2ccc(-c3ccccc3)cc2)OC2CCCCC21` (centres undefined) are 42 µM and 65.1 µM.
Consider `Cc1c(C)c2c(c(C)c1O)CCC(C)(C(=O)O)O2` (centres undefined) [TROLOX], for which the half-maximal inhibitory concentration (IC50) with Liver amounted to 25 µM.
Regarding `CC(C)(Sc1cc(C(C)(C)C)c(O)c(C(C)(C)C)c1)Sc1cc(C(C)(C)C)c(O)c(C(C)(C)C)c1` [PROBUCOL], in the test on Liver, the IC50 was over 500 µM.
Take `CN1CC(c2ccc(-c3ccccc3)cc2)OC2CCCCC21` (centres undefined): the IC50 on Squalene synthase [1] was 20.8 µM; with Liver, 218 µM.
Taken in the same sequence, the figures for `CN1CCOC(c2ccc(-c3ccccc3)cc2)C1` (centres undefined) were over 100 µM and 86.8 µM.
